Like-named read-outs stand apart in the source and are kept apart here.

The text below walks through data of patent publication US7537765B2, “Inhibition of HIV-1 replication by disruption of the processing of the viral capsid-spacer peptide 1 protein” (priority 2003, dated 2009).

The subject of assay [1] is primary Clade B HIV-1 isolates. In words: Virus inhibition assay, primary HIV-1 isolates in PBMC, p24 endpoint. Format: cell-based. The following applies: Human immunodeficiency virus 1, PBMC. As to the method:
A robust virus inhibition assay was used to evaluate the anti-viral activity of DSB against primary HIV-1 isolates propagated in PMBC. Briefly, serial dilutions of DSB were made in medium into 96-well tissue culture plates. 25-250 TCID50 of virus and 5×10^5 PHA-stimulated PBMCs were added to each well. On days 1, 3 and 5 post-infection, media was removed from each well and replaced with fresh media containing DSB at the appropriate concentration. On day 7 post-infection, culture supernatant was removed from each well for p24 detection of virus replication and 50% inhibitory concentrations (IC50) were calculated by standard methods.

The test system of assay [2] is drug resistant HIV-1 isolates. Put plainly: Drug resistant HIV-1 isolates in fresh PBMC, p24 endpoint. Format: cell-based. The following applies: for IC50: Human immunodeficiency virus 1, PBMC. As to the method: A robust virus inhibition assay was used to evaluate the anti-viral activity of DSB against primary HIV-1 isolates propagated in PMBC. Briefly, serial dilutions of DSB were made in medium into 96-well tissue culture plates. 25-250 TCID50 of virus and 5×10^5 PHA-stimulated PBMCs were added to each well. On days 1, 3 and 5 post-infection, media was removed from each well and replaced with fresh media containing DSB at the appropriate concentration.
(§1) The activity of DSB was tested against a panel of HIV-1 isolates resistant to approved drugs. These viruses were obtained from the NIH AIDS Research and Reference Reagent Program. Assays were performed using virus propagated in PBMCs with a p24 endpoint (above), or using cell line targets (MT-2 cells) and a cell killing endpoint. The MT-2 assay format was as follows. Serial dilutions of DSB, or each approved drug, were prepared in 96 well plates. To each sample well was added media containing MT-2 cells at 3×10^5 cells/mL and virus inoculum at a concentration necessary to result in 80% killing of the cell targets at 5 days post-infection (PI). On day 5 post-infection, virus-induced cell killing was determined by the XTT method and the inhibitory activity of the compound was determined.

The test system of assay [3] is NNRTI-resistant HIV-1 isolates. Put plainly: NNRTI-resistant HIV-1 isolates in MT-2 cells, cell viability (XTT) endpoint. Format: cell-based. The following applies: for IC50: X4, MT-2 cells. As to the method:
as §1

The test system of assay [4] is HIV-1 infected MAGI cells. Format: cell-based. From the text: To distinguish the inhibitory activity of DSB against early and late replication targets, a multinuclear activation of a galactosidase indicator (MAGI) assay was used. In this assay, the targets are HeLa cells stably expressing CD4, CXCR4, CCR5 and a reporter construct consisting of the—galactosidase gene (modified to localize to the nucleus) driven by a truncated HIV-1 LTR. Infection of these cells results in expression of Tat that drives activation of the β-galactosidase reporter gene. Expression of β-galactosidase in infected cells is detected using the chromogenic substrate X-gal.

In assay [5] the test system is HIV-1 replication in H9 lymphocyte cells. Particulars: cited from earlier work.
Setting [6] is: 168 h, isolate 92HT599, co-receptor X4, PBMC, p24 day 7, read-out: IC50.
Where [7] appears, read: 168 h, isolate 92US723, co-receptor R5/X4, PBMC, p24 day 7, read-out: IC50.
Setting [8] is: 168 h, isolate 3401N*, co-receptor R5/X4, PBMC, p24 day 7, read-out: IC50.
[9] abbreviates: 168 h, isolate 19101N*, co-receptor R5, PBMC, p24 day 7, read-out: IC50.
Setting [10] is: 168 h, isolate 22101N*, co-receptor R5/X4, PBMC, p24 day 7, read-out: IC50.
Where [11] appears, read: 168 h, isolate BZ167, co-receptor X4, PBMC, p24 day 7, read-out: IC50.
[12] abbreviates: 168 h, isolate US1, co-receptor R5, PBMC, p24 day 7, read-out: IC50.
The mark [13] stands for this setting: mean over the panel of primary isolates, read-out: IC50, Mean.
The mark [14] stands for this setting: isolate 1, NRTI-resistant, K70R T215Y/F, R5/X4.
[15] abbreviates: isolate 2, NRTI-resistant, K70R T215Y/F, R5/X4.
[16] abbreviates: isolate 5, Protease-resistant, V82A, X4.
[17] abbreviates: isolate 6, Protease-resistant, I84V, X4.
[18] abbreviates: isolate 7, Protease-resistant, L10R/M46I/L63P/V82T/I84V, X4.
Setting [19] is: Human immunodeficiency virus 1, MT2, isolate 3, NNRTI-resistant, Y181C.
Setting [20] is: Human immunodeficiency virus 1, MT2, isolate 4, NNRTI-resistant, K103N Y181C.
Setting [21] is: H9 lymphocyte cells, read-out: EC50, inhibitory activity against HIV-1 replication.

As a reminder, the IC50 is the concentration at which inhibition is half-maximal. With `Cc1cn([C@H]2C[C@H](N=[N+]=[N-])[C@@H](CO)O2)c(=O)[nH]c1=O` [AZT, zidovudine], the 50% inhibitory concentration (IC50) is 5.8 nM in assay [1] (setting [6]); 1.2 nM in assay [1] (setting [7]); 17.5 nM in assay [1] (setting [8]); 2.4 nM in assay [1] (setting [9]); 0.9 nM in assay [1] (setting [10]); 2.2 nM in assay [1] (setting [11]). Further, the concentration for half-maximal inhibition (IC50) in assay [1] (setting [12]) worked out at 0.9 nM; in assay [1] (setting [13]) it was 4.4 nM; in assay [2] (setting [14]), 86.4 nM; in assay [2] (setting [15]), 63.4 nM; in assay [2] (setting [16]), 13.1 nM; in assay [2] (setting [17]), 14.4 nM. For the same compound, the IC50 is 3.5 nM in assay [2] (setting [18]), 5.1 nM in assay [3] (setting [19]) and 2 nM in assay [3] (setting [20]). In addition, the “Fold Resistance” value in assay [2] (isolate 1, NRTI-resistant) was 54 X; in assay [2] (isolate 2, NRTI-resistant), 40 X. Also, the “% Decrease (β-galactosidase expression)” value in assay [4] (HIV-1 infected MAGI cells) amounted to 82%.

What is called EC50 is the concentration at which the effect is half-maximal. Consider `C=C(C)[C@@H]1CC[C@]2(C(=O)O)CC[C@]3(C)[C@H](CC[C@@H]4[C@@]5(C)CC[C@H](O)C(C)(C)[C@@H]5CC[C@]43C)[C@@H]12` [Betulinic acid], for which the EC50 in assay [5] (setting [21]) was 1400 nM.

Consider `CC(C)(C)NC(=O)[C@@H]1CN(Cc2cccnc2)CCN1C[C@@H](O)C[C@@H](Cc1ccccc1)C(=O)N[C@H]1c2ccccc2C[C@H]1O` [Indinavir, indinavir], for which the IC50 in assay [2] (setting [14]) came out at 9.8 nM; in assay [2] (setting [15]), 6.1 nM; in assay [2] (setting [16]), 39.7 nM; in assay [2] (setting [17]), 32.7 nM; in assay [2] (setting [18]) it was 72.5 nM; in assay [3] (setting [19]) it was 2.5 nM. In assay [3] (setting [20]), this compound showed an IC50 of 4.5 nM. Further, the “% Decrease (β-galactosidase expression)” value in assay [4] is listed as 10%.

For the compound `Cc1ccnc2c1NC(=O)c1cccnc1N2C1CC1` [Nevirapine, nevirapine], the IC50 was determined as 25.3 nM in assay [1] (setting [6]); 26.8 nM in assay [1] (setting [7]); 32.1 nM in assay [1] (setting [8]); 59.4 nM in assay [1] (setting [9]); 4.9 nM in assay [1] (setting [10]); 31.2 nM in assay [1] (setting [11]). Further, the IC50 in assay [1] (setting [12]) was 22.1 nM; in assay [1] (setting [13]), 28.8 nM; in assay [3] (setting [19]) it was greater than 3800 nM; in assay [3] (setting [20]) it was 2630 nM. Besides, the “Fold Resistance” value in assay [3] (isolate 3, NNRTI-resistant) is “(>177X)”; in assay [3] (isolate 4, NNRTI-resistant), “(122X)”. Also, in assay [4] (HIV-1 infected MAGI cells), the “% Decrease (β-galactosidase expression)” value was 85%.

For the compound `CC(C)[C@@H]1CC[C@]2(C(=O)O)CC[C@]3(C)C(CCC4[C@@]5(C)CC[C@H](O)C(C)(C)C5CC[C@]43C)C12` (stereo partly drawn) [dihydrobetulinic acid], the half-maximal effective concentration (EC50) in assay [5] (unit inferred, read-out: EC50, anti-HIV activity) is 900 nM.

Take `CC(=O)[C@@H]1CC[C@]2(C(=O)O)CC[C@]3(C)[C@H](CC[C@@H]4[C@@]5(C)CC[C@H](O)C(C)(C)[C@@H]5CC[C@]43C)[C@@H]12` [platanic acid]: the EC50 in assay [5] (setting [21]) is 6500 nM.
